Data reported in article PMC5778160, “Functional genomics analysis reveals the biosynthesis pathways of important cellular components (alginate and fucoidan) of Saccharina” (Current Genetics, 2017).
Each block holds one molecule with its values, some of them ahead of it.

What was measured:
EsiGMD2 = tested on: T1, EsiGMD2; assay: enzyme kinetics (GDP-mannose dehydrogenase activity); assay type: biochemical, Ectocarpus siliculosus; conditions: read-out: NAD / k m; co-substrate GDP-mannose; optimum pH 8.75–9, 30–37 °C; unit as in table header, probably a misprint for μM; heading: NAD / k m
T1 construct: gene GMD2; synthesized gene, pET32a, E. coli BL21(DE3), His-resin purified
Excerpt: enzyme kinetics (GDP-mannose dehydrogenase activity) on EsiGMD2

EsiGMD3 = tested on: T2, EsiGMD3; assay: as above; assay type: biochemical, Ectocarpus siliculosus; conditions: read-out: NAD / k m; co-substrate GDP-mannose; optimum pH 8.75, 30–37 °C; unit as in table header, probably a misprint for μM; heading: NAD / k m
T2 construct: gene GMD3; synthesized gene, pET32a, E. coli BL21(DE3), His-resin purified
Excerpt: enzyme kinetics (GDP-mannose dehydrogenase activity) on EsiGMD3

[1] = substrate: O=P(O)(O)O[C@H]1O[C@H](CO)[C@@H](O)[C@H](O)[C@@H]1O; assay: enzyme kinetics, double reciprocal plot (phosphomannomutase activity); assay type: biochemical, Saccharina japonica; conditions: optimum pH 7.4, 25 °C
[2] = substrate: O=P(O)(O)O[C@H]1O[C@H](CO)[C@@H](O)[C@H](O)[C@H]1O; assay: enzyme kinetics, double reciprocal plot (phosphoglucomutase activity); assay type: biochemical, Saccharina japonica; conditions: optimum pH 7.0, 30 °C

Km (EsiGMD2): 79.6 µM
Km (EsiGMD3): 43.5 µM
Molecule: NC(=O)c1ccc[n+]([C@@H]2O[C@H](COP(=O)(O)OP(=O)(O)OC[C@H]3O[C@@H](n4cnc5c(N)ncnc54)[C@H](O)[C@@H]3O)[C@@H](O)[C@H]2O)c1 [NAD]

B1: SjaPMM (Saccharina japonica) (protein)
chain: MSVTKNPRIIALFDVDGTLTAARKEVLPDMVEFIKTLRERITIGVVGGSDLPKQKEQLGESVMEDYDYSFSQNGLVAYKAGELIGQQTISKHVGEENLKKIINWVLKYMSGIDIPVKRGTFIEFRTGMLNISPVGRNCSQEERDAFEQYDNVHKIRETMVAAMREEFADLNLTFSIGGQISFDLFPTGWDKTFCLQFLGEGTAEYDEIHFFGDKTFKGGNDNEIFESERTIGHTVTSPADTIQQCKELFFKD
notes: synthesized gene, pET32a, E. coli BL21(DE3), His-resin purified
Km [1]: 699.41 µM
Km [2]: 41.04 µM
